This is an account of results in ChEMBL document CHEMBL5661983, “The selective anaplastic lymphoma receptor tyrosine kinase inhibitor ASP3026 induces tumor regression and prolongs survival in non-small cell lung cancer model mice” (Mol Cancer Ther, 2014).

By IC50 is commonly meant the concentration that inhibits the measured activity by half. As usually defined, the Tmax is the time at which the peak concentration occurs.

Data set [1] has as its system NCI-H2228. As to the kind of experiment: Antitumor activity against human NCI-H2228 cells xenografted in NOD.CB17-Prkdcscid/J mouse assessed as tumor regression at 10 mg/kg, po administered once daily for 2 weeks relative to control. The data set is classed as functional. In general terms: In xenograft studies the graft and the host belong to different species.
Another data set has as its target EML4-ALK (Homo sapiens, UniProt Q9UM73). The data set is classed as cell-based, BaF3.
Data set [2] in a line: Selectivity ratio of IC50 for inhibition of EML4-ALK L1196M mutant (unknown origin) expressed in mouse 3T3 cells assessed as growth inhibition to IC50 for Inhibition of EML4-ALK (unknown origin) expressed in mouse 3T3 cells assessed as growth inhibition. The arrangement: species or system Homo sapiens. The settings on record: condition non-small cell lung carcinoma.
Data set [3] deals with BDNF/NT-3 growth factors receptor (Homo sapiens, UniProt Q16620).
Data set [4] concerns the target Muscle, skeletal receptor tyrosine-protein kinase (Homo sapiens, UniProt O15146).
Data set [5] concerns NCI-H2228-Luc. The settings on record: dose 30 mg/kg; route po; time 90 day.
Data set [6] can be described thus: AUC (0 to 24 hrs) in human NCI-H2228 cell xenografted NOD.CB17-Prkdcscid/J mouse tumor at 3 mg/kg/day for 5 days by HPLC-MS analysis. The data set is classed as ADME, organism-based, Neoplasm. The settings on record: in vivo, po, 120 h, time 5 day.
For the next data set, the target named is Ephrin type-B receptor 4 (Homo sapiens, UniProt P54760).
In data set [7] the target is Proto-oncogene tyrosine-protein kinase ROS (Homo sapiens, UniProt P08922).
Data set [8] concerns the target Hepatocyte growth factor receptor (Homo sapiens, UniProt P08581). Put plainly: Inhibition of human N-terminal GST-fused MET cytoplasmic domain ([956 to 1390(end) residues) expressed in baculovirus expression system using Srctide as substrate measured after 1 hr by off-chip mobility shift assay relative to control.
The target in data set [9] is Macrophage-stimulating protein receptor (Homo sapiens, UniProt Q04912).
In data set [10] the target is High affinity nerve growth factor receptor (Homo sapiens, UniProt P04629).
Data set [11] has as its target T1, ALK tyrosine kinase receptor (Homo sapiens, UniProt Q9UM73). Put plainly: Inhibition of ALK in human NCI-H2228 cells assessed as reduction in STAT3 phosphorylation by measuring phosphorylated STAT3 level at 1000 nmol/L measured after 4 hrs by Western blot analysis relative to control. The data set is classed as cell-based. The arrangement: scale not given: the % may be the effect or the level left.

A short description of a further data set: in vivo. The conditions noted are these: NOD.CB17-Prkdcscid/J, mouse, tumour, po, 1 mg/kg.
The target of data set [12] is Tyrosine-protein kinase Lck (Homo sapiens, UniProt P06239).
The target in data set [13] is T1, ALK tyrosine kinase receptor. As to the kind of experiment: Inhibition of ALK phosphorylation in human NCI-H2228 cells assessed as phosphorylated ALK level at 100 nmol/L measured after 4 hrs by Western blot analysis relative to control. The data set is classed as cell-based. The arrangement: scale not given: the % may be the effect or the level left.
A further data set deals with Mus musculus. As to the kind of experiment: Antitumor activity against hEML4-ALK transgenic C57BL/6J mouse assessed as reduction in tumor mass at 100 mg/kg, po administered daily for 10 days and measured on day 11 by computed tomography scan analysis. The data set is classed as functional, organism-based. The settings on record: time 11.0 day.
Data set [14] is described as follows: Tmax in human NCI-H2228 cell xenografted NOD.CB17-Prkdcscid/J mouse tumor at 10 mg/kg/day for 5 days by HPLC-MS analysis. The data set is classed as ADME, organism-based, Neoplasm. The settings on record: route po, time 5 day.
For data set [15], the target named is NPM/ALK (Nucleophosmin/ALK tyrosine kinase receptor) (Homo sapiens, UniProt Q9UM73).
Sequence of NPM/ALK (Nucleophosmin/ALK tyrosine kinase receptor) (Q9UM73 whole entry): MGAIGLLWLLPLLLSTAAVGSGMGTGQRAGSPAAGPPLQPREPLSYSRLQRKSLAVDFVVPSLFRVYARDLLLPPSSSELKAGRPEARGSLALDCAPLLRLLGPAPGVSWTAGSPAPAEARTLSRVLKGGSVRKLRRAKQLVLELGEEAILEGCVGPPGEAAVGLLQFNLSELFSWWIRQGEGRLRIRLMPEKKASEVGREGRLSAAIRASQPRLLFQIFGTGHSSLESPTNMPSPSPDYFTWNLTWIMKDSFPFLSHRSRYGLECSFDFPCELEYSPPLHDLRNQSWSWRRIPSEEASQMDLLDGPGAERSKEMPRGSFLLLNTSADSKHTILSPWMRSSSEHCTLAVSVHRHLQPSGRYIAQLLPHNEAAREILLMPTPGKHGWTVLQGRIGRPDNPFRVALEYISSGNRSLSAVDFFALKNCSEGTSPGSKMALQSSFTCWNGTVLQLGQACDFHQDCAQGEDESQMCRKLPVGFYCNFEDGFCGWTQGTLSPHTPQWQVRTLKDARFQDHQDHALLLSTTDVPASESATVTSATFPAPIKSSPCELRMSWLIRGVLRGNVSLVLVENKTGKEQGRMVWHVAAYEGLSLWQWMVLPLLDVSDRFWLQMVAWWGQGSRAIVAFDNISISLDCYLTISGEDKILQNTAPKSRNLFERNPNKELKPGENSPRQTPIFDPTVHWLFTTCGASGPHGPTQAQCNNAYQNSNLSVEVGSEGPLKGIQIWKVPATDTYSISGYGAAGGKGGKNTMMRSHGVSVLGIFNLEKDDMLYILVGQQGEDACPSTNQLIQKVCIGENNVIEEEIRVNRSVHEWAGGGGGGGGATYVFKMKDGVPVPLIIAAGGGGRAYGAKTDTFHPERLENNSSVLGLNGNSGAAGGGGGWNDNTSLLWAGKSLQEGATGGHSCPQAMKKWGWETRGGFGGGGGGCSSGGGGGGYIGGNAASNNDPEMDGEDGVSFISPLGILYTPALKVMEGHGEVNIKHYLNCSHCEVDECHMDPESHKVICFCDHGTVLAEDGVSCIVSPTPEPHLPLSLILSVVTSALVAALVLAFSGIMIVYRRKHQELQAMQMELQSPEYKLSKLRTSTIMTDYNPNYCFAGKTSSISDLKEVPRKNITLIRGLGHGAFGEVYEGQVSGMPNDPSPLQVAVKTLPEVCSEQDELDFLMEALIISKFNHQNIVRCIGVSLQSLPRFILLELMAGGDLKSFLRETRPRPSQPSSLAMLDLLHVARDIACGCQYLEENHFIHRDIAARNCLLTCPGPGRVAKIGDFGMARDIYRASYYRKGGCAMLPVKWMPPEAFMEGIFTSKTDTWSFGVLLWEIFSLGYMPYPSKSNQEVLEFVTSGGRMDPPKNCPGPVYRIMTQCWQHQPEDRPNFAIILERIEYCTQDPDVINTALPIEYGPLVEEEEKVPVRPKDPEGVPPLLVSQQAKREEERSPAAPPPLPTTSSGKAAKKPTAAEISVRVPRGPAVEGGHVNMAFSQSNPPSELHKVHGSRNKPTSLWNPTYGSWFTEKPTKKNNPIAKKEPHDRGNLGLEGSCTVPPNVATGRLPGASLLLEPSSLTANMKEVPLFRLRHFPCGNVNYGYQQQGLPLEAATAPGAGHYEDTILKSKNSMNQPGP
Sequence of NPM/ALK (Nucleophosmin/ALK tyrosine kinase receptor) (P06748 whole entry, further chain): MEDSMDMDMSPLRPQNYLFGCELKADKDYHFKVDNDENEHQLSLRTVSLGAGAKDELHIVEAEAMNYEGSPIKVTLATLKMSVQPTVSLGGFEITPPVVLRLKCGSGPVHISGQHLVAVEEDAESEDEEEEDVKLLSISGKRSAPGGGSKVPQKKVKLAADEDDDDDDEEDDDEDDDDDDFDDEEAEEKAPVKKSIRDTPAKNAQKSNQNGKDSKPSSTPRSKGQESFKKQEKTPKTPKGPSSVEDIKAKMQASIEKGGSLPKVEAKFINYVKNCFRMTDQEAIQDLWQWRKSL
The subject of data set [16] is NCI-H2228. Put plainly: Potentiation of paclitaxel-induced antitumor activity against human NCI-H2228 cells xenografted in NOD.CB17-Prkdcscid/J mouse assessed as increase in tumor regression at 10 mg/kg, po administered once daily for 5 days. The data set is classed as functional, organism-based. The settings on record: time 5.0 day.
Data set [17] has as its system NCI-H2228-Luc. As to the kind of experiment: Antitumor activity against human NCI-H2228-Luc cells intrapleurally xenografted in NOD.CB17-Prkdcscid/J mouse assessed as median survival time at 10 mg/kg, po administered once daily for 7 weeks starting from 14 days post-cell inoculation measured up to 90 days (reference value: 39 day). The data set is classed as functional. The settings on record: time 90 day.

Data set [18] has as its system NCI-H2228. As to the kind of experiment: Antitumor activity against human NCI-H2228 cells xenografted in po dosed NOD.CB17-Prkdcscid/J mouse assessed as tumor growth inhibition administered once daily for 2 weeks. The data set is classed as functional, organism-based. The conditions noted are these: dose 1-30 mg/kg.
In data set [19] the target is Non-receptor tyrosine-protein kinase TNK1 (Homo sapiens, UniProt Q13470).

SMILES strings stand for the structures. The source made the active and inactive calls. No cut-off for these calls is given here.

T1 sequence (Q9UM73 19-1620 limits assumed): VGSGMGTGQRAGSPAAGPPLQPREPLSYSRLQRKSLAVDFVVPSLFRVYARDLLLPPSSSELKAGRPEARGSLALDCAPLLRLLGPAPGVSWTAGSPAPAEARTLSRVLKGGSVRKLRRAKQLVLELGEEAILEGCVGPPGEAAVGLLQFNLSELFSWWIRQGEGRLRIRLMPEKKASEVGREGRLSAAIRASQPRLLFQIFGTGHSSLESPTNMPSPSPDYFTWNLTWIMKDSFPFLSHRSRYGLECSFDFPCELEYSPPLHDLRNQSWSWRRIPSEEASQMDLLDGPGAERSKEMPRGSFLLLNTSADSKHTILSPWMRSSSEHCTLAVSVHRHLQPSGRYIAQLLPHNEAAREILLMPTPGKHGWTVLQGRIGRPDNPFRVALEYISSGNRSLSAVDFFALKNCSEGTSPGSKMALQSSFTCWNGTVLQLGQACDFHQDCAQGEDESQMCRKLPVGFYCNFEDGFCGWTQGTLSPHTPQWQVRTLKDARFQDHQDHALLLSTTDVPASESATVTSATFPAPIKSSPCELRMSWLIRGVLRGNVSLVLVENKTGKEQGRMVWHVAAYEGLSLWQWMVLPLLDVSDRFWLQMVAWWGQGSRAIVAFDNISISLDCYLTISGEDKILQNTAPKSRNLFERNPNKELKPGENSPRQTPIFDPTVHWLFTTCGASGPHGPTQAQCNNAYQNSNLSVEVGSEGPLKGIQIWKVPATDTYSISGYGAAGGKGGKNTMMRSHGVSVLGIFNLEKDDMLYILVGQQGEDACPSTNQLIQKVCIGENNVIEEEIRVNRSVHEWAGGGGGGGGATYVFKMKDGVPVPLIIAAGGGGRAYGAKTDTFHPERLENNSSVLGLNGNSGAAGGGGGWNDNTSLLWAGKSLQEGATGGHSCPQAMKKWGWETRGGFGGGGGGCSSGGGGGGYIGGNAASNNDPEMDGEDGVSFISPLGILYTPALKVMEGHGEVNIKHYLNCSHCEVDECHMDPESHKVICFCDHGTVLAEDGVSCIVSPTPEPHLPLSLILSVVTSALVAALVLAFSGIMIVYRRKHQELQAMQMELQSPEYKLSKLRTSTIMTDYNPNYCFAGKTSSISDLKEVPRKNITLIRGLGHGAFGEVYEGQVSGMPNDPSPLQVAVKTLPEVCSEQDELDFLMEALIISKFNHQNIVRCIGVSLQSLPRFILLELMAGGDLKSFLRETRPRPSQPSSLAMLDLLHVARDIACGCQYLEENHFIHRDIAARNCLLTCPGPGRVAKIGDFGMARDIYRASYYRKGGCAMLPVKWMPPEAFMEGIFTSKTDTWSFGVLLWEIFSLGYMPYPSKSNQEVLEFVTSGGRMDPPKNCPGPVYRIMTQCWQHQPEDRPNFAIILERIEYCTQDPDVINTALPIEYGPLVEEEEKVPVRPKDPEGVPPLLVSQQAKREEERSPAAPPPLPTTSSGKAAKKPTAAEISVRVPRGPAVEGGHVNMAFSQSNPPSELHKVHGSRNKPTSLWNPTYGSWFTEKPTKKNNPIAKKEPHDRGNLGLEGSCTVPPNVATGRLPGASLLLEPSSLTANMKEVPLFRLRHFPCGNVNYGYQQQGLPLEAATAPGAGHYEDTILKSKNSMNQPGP
Sequence of Hepatocyte growth factor receptor (P08581 whole entry, the tested form may be a part): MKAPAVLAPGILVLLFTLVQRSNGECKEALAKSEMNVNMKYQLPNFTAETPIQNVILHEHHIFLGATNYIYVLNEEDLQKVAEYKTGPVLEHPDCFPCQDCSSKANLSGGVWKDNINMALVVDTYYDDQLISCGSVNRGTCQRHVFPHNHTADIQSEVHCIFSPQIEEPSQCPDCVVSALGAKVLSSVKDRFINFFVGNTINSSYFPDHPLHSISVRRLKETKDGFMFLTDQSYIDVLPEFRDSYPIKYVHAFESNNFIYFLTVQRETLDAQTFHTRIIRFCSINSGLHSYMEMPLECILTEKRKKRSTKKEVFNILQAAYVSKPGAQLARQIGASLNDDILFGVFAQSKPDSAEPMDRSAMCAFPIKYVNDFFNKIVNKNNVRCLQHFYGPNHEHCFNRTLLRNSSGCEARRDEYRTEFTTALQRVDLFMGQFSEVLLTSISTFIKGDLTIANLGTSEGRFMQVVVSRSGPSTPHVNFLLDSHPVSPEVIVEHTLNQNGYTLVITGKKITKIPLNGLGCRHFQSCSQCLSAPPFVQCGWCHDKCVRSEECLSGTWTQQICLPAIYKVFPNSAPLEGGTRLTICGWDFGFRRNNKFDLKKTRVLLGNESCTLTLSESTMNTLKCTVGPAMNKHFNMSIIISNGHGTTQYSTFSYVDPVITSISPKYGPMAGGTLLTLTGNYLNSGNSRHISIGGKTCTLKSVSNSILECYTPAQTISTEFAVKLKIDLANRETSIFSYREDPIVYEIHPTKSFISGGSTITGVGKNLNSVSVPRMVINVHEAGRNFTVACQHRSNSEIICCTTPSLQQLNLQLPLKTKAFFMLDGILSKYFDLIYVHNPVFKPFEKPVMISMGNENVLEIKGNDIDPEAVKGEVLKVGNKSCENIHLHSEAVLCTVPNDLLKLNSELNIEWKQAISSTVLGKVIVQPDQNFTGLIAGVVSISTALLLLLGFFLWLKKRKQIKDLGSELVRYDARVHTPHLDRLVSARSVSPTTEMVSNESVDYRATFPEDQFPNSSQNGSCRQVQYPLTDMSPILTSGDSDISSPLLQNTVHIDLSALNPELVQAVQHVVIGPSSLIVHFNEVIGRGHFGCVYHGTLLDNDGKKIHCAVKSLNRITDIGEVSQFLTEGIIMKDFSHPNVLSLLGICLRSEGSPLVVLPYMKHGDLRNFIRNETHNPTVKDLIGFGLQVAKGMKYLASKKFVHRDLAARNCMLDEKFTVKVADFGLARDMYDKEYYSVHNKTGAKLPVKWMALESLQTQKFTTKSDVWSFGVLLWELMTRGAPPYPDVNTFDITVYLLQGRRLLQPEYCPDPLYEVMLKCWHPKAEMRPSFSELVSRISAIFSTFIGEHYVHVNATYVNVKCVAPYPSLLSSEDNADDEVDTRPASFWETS
Description for EML4-ALK: Inhibition of EML4-ALK (unknown origin) transformed in mouse BaF3 cells by HTRF assay

`COc1cc(N2CCC(N3CCN(C)CC3)CC2)ccc1Nc1ncnc(Nc2ccccc2S(=O)(=O)C(C)C)n1` [ASP-3026]: the Activity stood at 45% with NCI-H2228 [1], 46% in data set [11] and 37% in data set [13]. The IC50 at EML4-ALK is 10 nM; in data set [3], greater than 1000 nM; in data set [4], greater than 100 nM; on Ephrin type-B receptor 4, greater than 1000 nM; in data set [7] it was 8.9 nM; in [8], greater than 1000 nM. Further, the IC50 was greater than 1000 nM in data set [9]; greater than 1000 nM in data set [10]; greater than 100 nM in [12]; 6.8 nM in data set [15]; 26.8 nM in data set [19]. For the same compound, the “Ratio IC50” value in data set [2] turned out to be 3.9. In addition, the results for the MST in the data set on NCI-H2228-Luc [5] and with NCI-H2228-Luc [17] were greater than 90 days and 79 days, respectively. In data set [6], this compound returned an AUC of 34400 ng·h/g. The Kp at 120 h in “in vivo” stood at 22. Moreover, the outcome in the data set on Mus musculus and in the data set with NCI-H2228 [16] was Active. The Tmax in data set [14] was determined as 4 h. The TGI entry in the data set on NCI-H2228 [18] was “Dose-Dependent Effect”.
